From patent US9828373B2, “2-amino-pyrido[2,3-D]pyrimidin-7(8H)-one derivatives as CDK inhibitors and uses thereof” (SUNSHINE LAKE PHARMA CO., LTD., priority 2014, dated 2017)
Read-outs that look alike come from different tables or passages of the source.

Key:
[1] = target: CDK4/CycD3 (Homo sapiens, UniProt P11802); assay: Enzymatic inhibitory activity in vitro, CDK4 (Caliper mobility shift, FAM-labeled peptide); type: biochemical
From the text: (§1) The materials are used in the following assay:
(§2) HEPES: 4-(2-Hydroxyethyl)piperazine-1-ethanesulfonic acid; Brij-35: Polyethylene Glycol Monoisotridecyl Ether; DTT: Dithiothreitol; EDTA: Ethylene Diamine Tetraacetic Acid; CDK4/CycD3: Cyclin dependent kinase 4; CDK6/CycD3: Cyclin dependent kinase 6; Peptide FAM-P22: fluorescein-labeled peptide 22; ATP: adenosine triphosphate; DMSO: dimethyl sulfoxide; Staurosporine; Coating Reagent #3;
(§3) 1. Preparation of 1× Kinase Base Buffer and Stop Buffer:
(§4) (1) 1× Kinase buffer without MnCl2 (50 mM HEPES, pH 7.5, 0.0015% Brij-35, 10 mM MgCl2, 2 mM DTT); (2) Stop buffer (100 mM HEPES, pH 7.5, 0.015% Brij-35, 0.2% Coating Reagent #3, 50 mM EDTA).
(§5) (1) The compound was diluted to 50× of the final desired highest inhibitor concentration in reaction by 100% DMSO. Transferring 100 μL of this compound dilution to a well in a 96-well plate. (2) The compound was diluted by transferring 20 μL of the compound dilution to 60 μL of 100% DMSO in the next well and so forth for a total of 10 concentrations. (3) 100 μL of 100% DMSO was added to two empty wells for no compound control and no enzyme control. (4) Intermediate plate was prepared by transferring 10 μL of compound from source plate to a new 96-well plate and adding 90 μL of 1× kinase buffer to each well of the intermediate plate. The compounds in intermediate plate were mixed for 10 min on shaker. (5) Assay plate was prepared by transferring 5 μL of each well from the 96-well intermediate plate to a 384-well plate in duplicates.
(§6) (1) 2.5× Enzyme solution was prepared by adding kinase in 1× kinase base buffer. (2) 2.5× Peptide solution was prepared by adding FAM-labeled peptide and ATP in the 1× kinase base buffer. (3) 2.5× Enzyme solution was transferred to the assay plate contained 5 μL of compound in 10% DMSO, which was incubated at room temperature for 10 min. (4) 10 μL of 2.5× […] solution was added to each well of the 384-well assay plate. (5) Kinase reaction and stopping, after incubating at 28° C. for specified period of time, 25 μL of stop buffer was added to stop reaction.
(§7) 4. Caliper Reading, Collect Data on Caliper.
(§8) (1) Copying conversion data from Caliper program; (2) Converting conversion values to inhibition values: Percent inhibition=(max−conversion)/(max−min)*100; “max” means the value of control without compound; “min” means the value of control without enzyme; (3) Fitting the data in XLfit to obtain IC50 values.

[2] = target: CDK6/CycD3 (Homo sapiens, UniProt Q00534); assay: Enzymatic inhibitory activity in vitro, CDK6 (Caliper mobility shift, FAM-labeled peptide); type: biochemical
CDK6/CycD3, sequence (Q00534 whole entry, species assumed): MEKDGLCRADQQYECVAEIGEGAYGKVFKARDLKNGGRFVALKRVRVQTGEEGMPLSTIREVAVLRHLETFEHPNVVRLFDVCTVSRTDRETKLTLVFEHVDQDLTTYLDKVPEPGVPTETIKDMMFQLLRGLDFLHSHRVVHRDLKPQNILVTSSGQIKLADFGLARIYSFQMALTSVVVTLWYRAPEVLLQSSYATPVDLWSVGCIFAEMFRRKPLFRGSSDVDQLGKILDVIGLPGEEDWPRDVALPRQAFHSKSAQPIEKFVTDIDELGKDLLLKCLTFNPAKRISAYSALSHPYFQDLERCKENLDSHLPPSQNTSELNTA
CDK6/CycD3, sequence (P30281 whole entry partner, species assumed): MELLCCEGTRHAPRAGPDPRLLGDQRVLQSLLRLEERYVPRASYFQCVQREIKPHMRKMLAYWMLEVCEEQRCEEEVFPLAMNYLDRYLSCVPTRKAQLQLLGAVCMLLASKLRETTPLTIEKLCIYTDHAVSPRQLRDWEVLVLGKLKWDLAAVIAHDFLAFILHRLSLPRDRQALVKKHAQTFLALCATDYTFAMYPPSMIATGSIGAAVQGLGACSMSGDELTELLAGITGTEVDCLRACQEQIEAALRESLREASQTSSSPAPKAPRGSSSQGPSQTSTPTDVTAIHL
From the text: as §1, §2, §3, §4, §5, §6, §7, §8

[3] = Pharmacokinetics in rats (iv and oral, plasma LC-MS/MS); type: in vivo, male SD rats; details: rat
From the text: The assay agents and samples are as shown below:
Propranolol: Propranolol (internal standard); MTBE: Methyl Tertiary Butyl Ether; Cremophor EL: polyoxyethylated castor oil; KolliphorHS 15: polyethylene glycol 12-hydroxystearate; DMSO: dimethylsulfoxide; PEG400: polyethylene glycol 400; 18 male SD rats.
Each test compound prepared was completely dissolved in a mixture of 5% DMSO+10% KolliphorHS 15+35% Saline or 5% DMSO+60% PEG400+35% Saline according solubility property thereof.
Grouping male SD rats weighing 190-250 g randomly to two groups; one group was administered with test compound at a dose of 1.0 mg/kg by intravenous injection, the other group was administered with test compound at a dose of 5.0 mg/kg by oral. After administering, blood samples of intravenous injection group were collected at time points of 0.0833, 0.25, 0.5, 1, 2, 5, 7 and 24 h from caudal vein; blood samples of oral group were collected at time points of 0.25, 0.5, 1, 2, 5, 7 and 24 h from caudal vein. Standard curve was plotted based on concentrations of the samples in a suitable range, the concentrations of test compounds in plasma samples were determined by using LC-MS/MS. Pharmacokinetic parameters were calculated according to drug concentration-time curve using a noncompartmental method by WinNonLin 6.3 software.

CDK4/CycD3, sequence (P11802 whole entry, species assumed): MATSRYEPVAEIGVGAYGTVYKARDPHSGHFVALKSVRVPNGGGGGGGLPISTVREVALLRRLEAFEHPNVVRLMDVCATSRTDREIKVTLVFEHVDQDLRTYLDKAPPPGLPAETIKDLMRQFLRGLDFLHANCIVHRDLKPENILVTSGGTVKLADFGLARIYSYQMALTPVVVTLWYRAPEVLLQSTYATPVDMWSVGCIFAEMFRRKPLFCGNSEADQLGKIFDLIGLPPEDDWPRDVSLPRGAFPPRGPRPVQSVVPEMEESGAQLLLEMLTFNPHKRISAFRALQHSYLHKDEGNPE
CDK4/CycD3, sequence (P30281 whole entry partner, species assumed): as the sequence (P30281 whole entry partner, species assumed) above

CC(=O)c1c(C)c2cnc(Nc3ccc4c(ccn4C4CCNCC4)c3)nc2n(C2CCCC2)c1=O [Example 1, 6-Acetyl-8-cyclopentyl-5-methyl-2-((1-(piperidin-4-yl)-1H-indol-5-yl)amino)pyrido[2,3-d]pyrimidin-7(8H)-one]
IC50 [1]: 6.8 nM
IC50 [2]: 29.2 nM

CC(=O)c1c(C)c2cnc(Nc3ncnc4c(C5=CCNCC5)csc34)nc2n(C2CCCC2)c1=O [Example 2, 6-Acetyl-8-cyclopentyl-5-methyl-2-((7-(1,2,3,6-tetrahydropyridin-4-yl)thieno[3,2-d]pyrimidin-4-yl)amino)pyrido[2,3-d]pyrimidin-7(8H)-one]
IC50 [1]: 2390 nM
IC50 [2]: 4810 nM

CC(=O)c1c(C)c2cnc(Nc3ccc4c(n3)CCNC4)nc2n(C2CCCC2)c1=O [Example 3, 6-Acetyl-8-cyclopentyl-5-methyl-2-((5,6,7,8-tetrahydro-1,6-naphthyridin-2-yl)amino)pyrido[2,3-d]pyrimidin-7(8H)-one]
IC50 [1]: 5.7 nM
IC50 [2]: 47 nM
bioavailability ([3]; male, SD, in vivo): 101%
AUC(0-inf) ([3]; male, SD, in vivo, iv, 1 mg/kg): 587 ng·h/mL
AUC(0-t) ([3]; male, SD, in vivo, iv, 1 mg/kg): 485 ng·h/mL
Cmax ([3]; male, SD, in vivo, iv, 1 mg/kg): 141 ng/mL
Tmax ([3]; male, SD, in vivo, iv, 1 mg/kg): 0.42 h
half-life ([3]; male, SD, in vivo, iv, 1 mg/kg): 2.93 h
AUC(0-inf) ([3]; male, SD, in vivo, po, 5 mg/kg): 2970 ng·h/mL
AUC(0-t) ([3]; male, SD, in vivo, po, 5 mg/kg): 2930 ng·h/mL
Cmax ([3]; male, SD, in vivo, po, 5 mg/kg): 293 ng/mL
Tmax ([3]; male, SD, in vivo, po, 5 mg/kg): 4 h
half-life ([3]; male, SD, in vivo, po, 5 mg/kg): 3.91 h

CC(=O)c1c(C)c2cnc(Nc3ccc4c(n3)CCN(C(=O)CO)C4)nc2n(C2CCCC2)c1=O [Example 4, 6-Acetyl-8-cyclopentyl-2-((6-(2-hydroxyacetyl)-5,6,7,8-tetrahydro-1,6-naphthyridin-2-yl)amino)-5-methylpyrido[2,3-d]pyrimidin-7(8H)-one]
IC50 [1]: 17 nM
IC50 [2]: 62 nM

CC(=O)c1c(C)c2cnc(Nc3ccc4c(n3)CCN(CCC(F)(F)F)C4)nc2n(C2CCCC2)c1=O [Example 5, 6-Acetyl-8-cyclopentyl-5-methyl-2-((6-(3,3,3-trifluoropropyl)-5,6,7,8-tetrahydro-1,6-naphthyridin-2-yl)amino)pyrido[2,3-d]pyrimidin-7(8H)-one]
IC50 [1]: 25 nM
IC50 [2]: 1060 nM

CC(=O)c1c(C)c2cnc(Nc3ccc4c(n3)CCN(C(C)=O)C4)nc2n(C2CCCC2)c1=O [Example 6, 6-Acetyl-2-((6-acetyl-5,6,7,8-tetrahydro-1,6-naphthyridin-2-yl)amino)-8-cyclopentyl-5-methylpyrido[2,3-d]pyrimidin-7(8H)-one]
IC50 [1]: 20 nM
IC50 [2]: 65 nM

CCN1CCc2nc(Nc3ncc4c(C)c(C(C)=O)c(=O)n(C5CCCC5)c4n3)ccc2C1 [Example 7, 6-Acetyl-2-((6-ethyl-5,6,7,8-tetrahydro-1,6-naphthyridin-2-yl)amino)-8-cyclopentyl-5-methylpyrido[2,3-d]pyrimidin-7(8H)-one]
IC50 [1]: 19 nM
IC50 [2]: 83 nM

CC(=O)c1c(C)c2cnc(Nc3ccc4c(n3)CCN(C3CCNCC3)C4)nc2n(C2CCCC2)c1=O [Example 39]
IC50 [1]: 14 nM
IC50 [2]: 51 nM

CC(=O)c1c(C)c2cnc(Nc3ccc4c(n3)CCN(C3CCN(C)CC3)C4)nc2n(C2CCCC2)c1=O [Example 40, 6-Acetyl-8-cyclopentyl-5-methyl-2-((6-(1-methylpiperidin-4-yl)-5,6,7,8-tetrahydro-1,6-naphthyridin-2-yl)amino)pyrido[2,3-d]pyrimidin-7(8H)-one]
IC50 [1]: 7.2 nM
IC50 [2]: 25 nM

CC(=O)c1c(C)c2cnc(Nc3ccc4c(n3)CCN(C3COC3)C4)nc2n(C2CCCC2)c1=O [Example 41, 6-Acetyl-8-cyclopentyl-5-methyl-2-((6-(oxetan-3-yl)-5,6,7,8-tetrahydro-1,6-naphthyridin-2-yl)amino)pyrido[2,3-d]pyrimidin-7(8H)-one]
IC50 [1]: 18 nM
IC50 [2]: 59 nM

CC(=O)c1c(C)c2cnc(Nc3ccc(N4CCNCC4)cn3)nc2n(C2CCCC2)c1=O [Palbociclib, reference compound]
AUC(0-inf) ([3]; plasma, male SD rats, iv, 1.0 mg/kg, read-out: AUCINF): 332 ng·h/mL
AUC(0-t) ([3]; plasma, male SD rats, iv, 1.0 mg/kg, read-out: AUClast): 294 ng·h/mL
Cmax ([3]; plasma, male SD rats, iv, 1.0 mg/kg, read-out: Cmax): 143 ng/mL
half-life ([3]; plasma, male SD rats, iv, 1.0 mg/kg, read-out: T1/2 (converted)): 2.72 h
Tmax ([3]; plasma, male SD rats, iv, 1.0 mg/kg, read-out: Tmax): 0.083 h
bioavailability ([3]; plasma, male SD rats, po 5.0 mg/kg versus iv 1.0 mg/kg, read-out: F (%)): 79.9%
AUC(0-inf) ([3]; plasma, male SD rats, po, 5.0 mg/kg, read-out: AUCINF): 1400 ng·h/mL
AUC(0-t) ([3]; plasma, male SD rats, po, 5.0 mg/kg, read-out: AUClast): 1280 ng·h/mL
Cmax ([3]; plasma, male SD rats, po, 5.0 mg/kg, read-out: Cmax): 156 ng/mL
half-life ([3]; plasma, male SD rats, po, 5.0 mg/kg, read-out: T1/2 (converted)): 4.28 h
Tmax ([3]; plasma, male SD rats, po, 5.0 mg/kg, read-out: Tmax): 2.67 h
